Experimental data taken from paper PMC8808171, “Nonselective TRPC channel inhibition and suppression of aminoglycoside-induced premature termination codon readthrough by the small molecule AC1903” (The Journal of Biological Chemistry, 2022).
“Also recorded” adds a separate entry of the source.

What was measured:
[1] = target: T1, TRPC6:C6 (Homo sapiens, UniProt Q9Y210); assay: [Ca2+]i recordings (Fura-2), TRPC6:C6 in HEK 293 cells; format: cell-based
T1 construct: expressed in transfected cells; host or cells: WT HEK 293 (transient)
Protocol: Based on the findings described above, we wondered whether AC1903—which is typically used as a TRPC5 inhibitor at concentrations of 30–100 μM in cellular assays ([29], [56])—might have limited selectivity for TRPC5 channels and whether its effect on intracellular G418 levels and PTC readthrough might be the consequence of inhibition of other or multiple targets. All well-characterized TRPC channel inhibitors reported to date modulate multiple TRP(C) channels ([34], [35], [36]). […] Because limited data for the selectivity of AC1903 are available in the public domain, we decided to profile AC1903 against a selection of calcium-permeable cation channels by intracellular calcium ([Ca^2+]i) recordings using well-characterized cell lines and TRP channel activators ([46], [57], [58]), and the Ca^2+ indicator Fura-2. In these assays, cells (HEK 293, HEK T-REx, or CHO) overexpressing the relevant ion channel protein and loaded with Fura-2 AM (a cell-permeable precursor of Fura-2) were preincubated with various concentrations of AC1903 or vehicle (DMSO) for 30 min. Then, changes in ratiometric fluorescence (from background) were recorded upon addition of the respective ion channel activator. […]

[2] = tested on: A498 cells; assay: EA-mediated A498 cytotoxicity (WST-1 cell viability assay); format: cell-based; conditions: AC1903 100 μM; 100 nM EA; 8 h
Protocol: Cell viability assays were carried out using WST-1 Cell Proliferation Reagent (Merck). A498 cells were plated onto clear 96-well plates at 4000 cells per well and left to adhere for 24 h. Media was then removed, and replaced with fresh media containing 100 nM EA, in presence of either DMSO or 0.1 to 100 μM AC1903. Control wells were treated with vehicle (DMSO) only. To exclude any potential cytotoxic effects of AC1903 itself, cells were incubated with 0.1 to 100 μM AC1903 in absence of EA. Cells were treated in triplicate. Cells were incubated with compounds for 8 h. After 8 h, treatment media was removed and media containing WST-1 reagent (10 μl reagent +100 μl media per well) was added to each well and incubated for 1.5 h at 37 °C. Blank wells contained media and WST-1 reagent (no cells). […] Absorbance was then read at 440 nm and 650 nm (reference wavelength). To analyze data, the value of the 650 nm was subtracted from that of the 440 nm reading. Values across triplicate wells were averaged, and the value from the blank wells subtracted to account for background absorbance. […]
Inhibition of G418-induced premature stop codon readthrough
A498 cytotoxicity . […] Cell viability was calculated as % of control, and the effect of AC1903 was compared to control (0 µM ) (scatter plots showing data from three independent experiments; bars represent mean ± SD; n = 3). […]

T1 sequence (Q9Y210 whole entry): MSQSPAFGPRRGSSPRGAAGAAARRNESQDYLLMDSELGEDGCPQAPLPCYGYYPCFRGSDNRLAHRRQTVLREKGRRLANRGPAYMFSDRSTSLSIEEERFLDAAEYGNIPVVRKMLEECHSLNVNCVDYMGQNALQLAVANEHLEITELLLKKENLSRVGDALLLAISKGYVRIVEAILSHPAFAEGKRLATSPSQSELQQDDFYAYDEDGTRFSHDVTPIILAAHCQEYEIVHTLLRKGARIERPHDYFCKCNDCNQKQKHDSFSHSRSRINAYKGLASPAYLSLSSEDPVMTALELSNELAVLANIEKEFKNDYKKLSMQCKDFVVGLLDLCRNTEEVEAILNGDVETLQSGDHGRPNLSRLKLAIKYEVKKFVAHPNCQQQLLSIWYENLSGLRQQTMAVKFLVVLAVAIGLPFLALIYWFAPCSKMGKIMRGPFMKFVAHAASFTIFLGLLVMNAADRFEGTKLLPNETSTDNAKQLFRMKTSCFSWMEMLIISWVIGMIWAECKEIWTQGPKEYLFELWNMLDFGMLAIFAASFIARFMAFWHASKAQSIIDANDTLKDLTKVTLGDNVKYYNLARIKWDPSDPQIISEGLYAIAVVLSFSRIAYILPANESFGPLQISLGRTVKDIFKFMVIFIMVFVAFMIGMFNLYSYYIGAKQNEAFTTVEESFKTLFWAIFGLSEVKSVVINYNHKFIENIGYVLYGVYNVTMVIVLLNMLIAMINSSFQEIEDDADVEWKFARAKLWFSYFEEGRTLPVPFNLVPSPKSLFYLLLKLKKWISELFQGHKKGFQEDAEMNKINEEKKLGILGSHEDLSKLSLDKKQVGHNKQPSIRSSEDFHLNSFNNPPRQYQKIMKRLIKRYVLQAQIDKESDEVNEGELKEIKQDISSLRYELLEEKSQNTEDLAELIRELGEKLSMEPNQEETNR

IC50 ([1]; HEK 293, activator OAG (100 μM)): 15 µM
Hill slope ([1]; activator OAG): -1.5
SMILES: c1ccc(Cn2c(NCc3ccco3)nc3ccccc32)cc1 [AC1903]
effect on EA-mediated A498 cytotoxicity [2]: inhibits EA-mediated; also recorded: inhibited EA-mediated A498 cytotoxicity
